Read-outs that look alike come from different tables or passages of the source. Residues, ends and D or L forms follow the SMILES beside them. *: point of attachment. Arachidoyl = CCCCCCCCCCCCCCCCCCCC(=O)*; Stearoyl = CCCCCCCCCCCCCCCCCC(=O)*; Palmitoyl = CCCCCCCCCCCCCCCC(=O)*
Columns and labels:
[1] = in vitro; conditions: dog
[2] = tested on: influenza A/Puerto Rico/8/34 (H1N1); conditions: /Puerto Rico/8/34, 24 h
[3] = tested on: influenza B virus; test: microbe, parasite or virus in culture; type: cell-based; conditions: read-out: IC50 ± SD, B
[4] = tested on: clinical isolate 699 (H3 subtype); test: microbe, parasite or virus in culture; type: cell-based; conditions: Influenza A virus, read-out: IC50 ± SD, H3 (699)
[5] = tested on: clinical isolate 690 (H3 subtype); test: microbe, parasite or virus in culture; type: cell-based; conditions: Influenza A virus, read-out: IC50 ± SD, H3 (690)
[6] = tested on: influenza A/Aichi/2/68 (H3N2); test: microbe, parasite or virus in culture; type: cell-based; conditions: H3N2, read-out: IC50 ± SD, H3N2
[7] = tested on: influenza A/Puerto Rico/8/34 (H1N1); test: microbe, parasite or virus in culture; conditions: H1N1, MDCK, read-out: IC50 ± SD

SMILES | CC50 at 48 h [1] | IC50 [2] | other results
CCCCCCCCCCCCCCCC(=O)N[C@@H](CCCCN)C(=O)N[C@@H](CCCCN)C(=O)N[C@@H](Cc1c[nH]c2ccccc12)C(=O)N[C@@H](CCCCN)C(=O)NCC(=O)NCC(=O)NCC(=O)N[C@@H](C)C(=O)N[C@@H](CCCNC(=N)N)C(=O)N[C@@H](CC(C)C)C(=O)N1CCC[C@H]1C(=O)N[C@@H](CCCNC(=N)N)C(N)=O [C16-Hp-GGG-Jp, C16-KKWKGGGARLPR] (Palmitoyl-KKWKGGGARLPR-NH2) | > 200 µM | 8.05 ± 0.52 µM | –
CCCCCCCCCCCCCCCC(=O)N[C@@H](CCCCN)C(=O)N[C@@H](CCCCN)C(=O)N[C@@H](Cc1c[nH]c2ccccc12)C(=O)N[C@@H](CCCCN)C(=O)N[C@@H](C)C(=O)N[C@@H](CCCNC(=N)N)C(=O)N[C@@H](CC(C)C)C(=O)N1CCC[C@H]1C(=O)N[C@@H](CCCNC(=N)N)C(N)=O [C16-Hp-Jp, C16-KKWKARLPR] (Palmitoyl-KKWKARLPR-NH2) | > 200 µM | 2.48 ± 0.24 µM | –
CCCCCCCCCCCCCCCC(=O)N[C@@H](C)C(=O)N[C@@H](CCCNC(=N)N)C(=O)N[C@@H](CC(C)C)C(=O)N1CCC[C@H]1C(=O)N[C@@H](CCCNC(=N)N)C(=O)NCC(=O)NCC(=O)NCC(=O)N[C@@H](CCCCN)C(=O)N[C@@H](CCCCN)C(=O)N[C@@H](Cc1c[nH]c2ccccc12)C(=O)N[C@@H](CCCCN)C(N)=O [C16-Jp-GGG-Hp, C16-ARLPRGGGKKWK] (Palmitoyl-ARLPRGGGKKWK-NH2) | > 200 µM | 6.79 ± 0.17 µM | –
CCCCCCCCCCCCCCCC(=O)N[C@@H](C)C(=O)N[C@@H](CCCNC(=N)N)C(=O)N[C@@H](CC(C)C)C(=O)N1CCC[C@H]1C(=O)N[C@@H](CCCNC(=N)N)C(=O)N[C@@H](CCCCN)C(=O)N[C@@H](CCCCN)C(=O)N[C@@H](Cc1c[nH]c2ccccc12)C(=O)N[C@@H](CCCCN)C(N)=O [C16-Jp-Hp, C16-ARLPRKKWK] (Palmitoyl-ARLPRKKWK-NH2) | > 200 µM | 1.29 ± 0.4 µM | –
CCCCCCCCCCCCCCCCCC(=O)N[C@@H](CCCCN)C(=O)N[C@@H](CCCCN)C(=O)N[C@@H](Cc1c[nH]c2ccccc12)C(=O)N[C@@H](CCCCN)C(=O)NCC(=O)NCC(=O)NCC(=O)N[C@@H](C)C(=O)N[C@@H](CCCNC(=N)N)C(=O)N[C@@H](CC(C)C)C(=O)N1CCC[C@H]1C(=O)N[C@@H](CCCNC(=N)N)C(N)=O [C18-Hp-GGG-Jp, C18-KKWKGGGARLPR] (Stearoyl-KKWKGGGARLPR-NH2) | > 200 µM | 6.99 ± 2 µM | –
CCCCCCCCCCCCCCCCCC(=O)N[C@@H](C)C(=O)N[C@@H](CCCNC(=N)N)C(=O)N[C@@H](CC(C)C)C(=O)N1CCC[C@H]1C(=O)N[C@@H](CCCNC(=N)N)C(=O)NCC(=O)NCC(=O)NCC(=O)N[C@@H](CCCCN)C(=O)N[C@@H](CCCCN)C(=O)N[C@@H](Cc1c[nH]c2ccccc12)C(=O)N[C@@H](CCCCN)C(N)=O [C18-Jp-GGG-Hp, C18-ARLPRGGGKKWK] (Stearoyl-ARLPRGGGKKWK-NH2) | > 200 µM | 5.09 ± 0.35 µM | –
CCCCCCCCCCCCCCCCCCCC(=O)N[C@@H](CCCCN)C(=O)N[C@@H](CCCCN)C(=O)N[C@@H](Cc1c[nH]c2ccccc12)C(=O)N[C@@H](CCCCN)C(=O)NCC(=O)NCC(=O)NCC(=O)N[C@@H](C)C(=O)N[C@@H](CCCNC(=N)N)C(=O)N[C@@H](CC(C)C)C(=O)N1CCC[C@H]1C(=O)N[C@@H](CCCNC(=N)N)C(N)=O [C20-Hp-GGG-Jp, C20-KKWKGGGARLPR] (Arachidoyl-KKWKGGGARLPR-NH2) | – | 5.22 ± 0.37 µM | CC50: > 200 µM
CCCCCCCCCCCCCCCCCCCC(=O)N[C@@H](C)C(=O)N[C@@H](CCCNC(=N)N)C(=O)N[C@@H](CC(C)C)C(=O)N1CCC[C@H]1C(=O)N[C@@H](CCCNC(=N)N)C(=O)NCC(=O)NCC(=O)NCC(=O)N[C@@H](CCCCN)C(=O)N[C@@H](CCCCN)C(=O)N[C@@H](Cc1c[nH]c2ccccc12)C(=O)N[C@@H](CCCCN)C(N)=O [C20-Jp-GGG-Hp, C20-ARLPRGGGKKWK] (Arachidoyl-ARLPRGGGKKWK-NH2) | – | 4.04 ± 0.02 µM | CC50: > 200 µM
NC(=O)c1ncn([C@@H]2O[C@H](CO)[C@@H](O)[C@H]2O)n1 [Ribavirin, ribavirin] | – | – | IC50 [3]: 6.71 ± 0.93 µM; IC50 [4]: 4.92 ± 1.45 µM; IC50 [5]: 8.47 ± 3.01 µM; IC50 [6]: 24.9 ± 1.1 µM; IC50 [7]: 12.85 ± 0.08 µM
